“Also recorded” adds a separate entry of the source.
What was measured:
[1] = Absorption (AUC) by route of administration, Example 3; conditions: after oropharyngeal (buccal) versus sublingual administration
[2] = Cannabinoid uptake in patients, drops applied sublingually; type: in vivo, human; conditions: sublingual drops, dose approx 20 mg of each cannabinoid; for Cmax / AUC(0-t): human, plasma; for AUC(0-t): read-out: AUC 0-12
Experimental: Initially the applicant looked at cannabinoid uptake in patients by applying drops sublingually (BDS dissolved in a mixture of a glycerol/propylene glycol and ethanol) THC 5 mg/ml, CBD 5 mg/ml and THC/CBD 5 mg/ml plus 5 mg/ml.
The results are noted in Table 3 below:
The proportion of 11 hydroxy tetrahydro cannabinol to THC (AUC 0-12) was about 1.9 indicating a significant amount of oral ingestion may have occurred.
(§1) The data obtained is illustrated in FIGS. 1a, 1b and 2, which show the mean plasma concentrations for the formulations identified with reference to Tables 3 and 4.

[3] = Cannabinoid uptake, pump action sublingual spray; type: in vivo, human; conditions: dose approx 21 mg THC and 35 mg CBD; for Cmax / AUC(0-t): human, plasma; for AUC(0-t): read-out: AUC 0-12
Experimental: On moving to a pump action sublingual spray (following problems solubilising cannabinoids with hydrofluorocarbon propellant systems) the applicant obtained the results noted in Table 4. The solvent system comprised 50:50 ethanol to propylene glycol (v/v ratio) with THC 25 mg/ml; CBD 50 mg/ml and THC/CBD 25 mg/ml plus 50 mg/ml respectively.
The proportion of 11 hydroxy tetrahydro cannabinol to THC (AUC 0-12) was about 1.6. The profile for each cannabinoid was similar irrespective of the formulation (THC, CBD, THC plus CBD).
as §1
That effective delivery of the cannabinoids can be achieved in a vehicle consisting of ethanol and propylene glycol is illustrated by the plasma levels shown in FIGS. 1a, 1b and 2. These show, respectively, formulations containing the high THC and high CBD formulations in FIGS. 1a and 1b. Similarly, the effectiveness of a defined ratio formulation THC:CBD 1:1 is illustrated in FIG. 2.

[4] = Effect of light on stability of methanolic CBME solutions, HPLC; type: physicochemical; conditions: for residual compound: amber glass protected, 112 days
Description: Experiments were set up to follow the effects of white light on the stability of methanolic solutions of THC, CBD or THCV. Following preliminary knowledge that light of different wavelengths may have differing effects on compound stability (viz. tretinoin is stable only in red light or darkness), samples were wrapped in coloured acetate films or in light exclusive foil. A concurrent experiment used charcoal treated CBME to study the effects of the removal of plant pigments on the degradation process.
Cannabinoids: 1 mg/ml solutions of CBME were made up in AR methanol. Methanolic solutions of CBME (100 mg/ml) were passed through charcoal columns (Biotage Flash 12AC 7.5 cm cartridges, b/no. 273012S) and were then diluted to 1 mg/ml. Solutions were stored in soda-glass vials, which were tightly screw capped and oversealed with stretch film. Tubes were wrapped in coloured acetate films as follows:
Solutions were also filled into the amber glass U-save vials; these were sealed with a septum and oversealed. One tube of each series of samples was tightly wrapped in aluminium foil in order to completely exclude light. This served as a “dark” control to monitor the contribution of ambient temperature to the degradation behaviour. All of the above tubes were placed in a box fitted with 2×40 watt white Osram fluorescent tubes. The walls of the box were lined with reflective foil and the internal temperature was monitored at frequent intervals.
A further tube of each series was stored at −20° C. to act as a pseudo to the reference sample; in addition, one tube was exposed directly to light without protection. Samples were withdrawn for chromatographic analysis at intervals up to 112 days following the start of the study. The study was designated AS01201/AX282.
(§2) Samples of the test solutions were withdrawn and diluted as appropriate for HPLC and TLC analysis. HPLC was carried out in accordance with TM GE.004.V1 (SOPam058). TLC was performed on layers on Silica gel (MN SilG/UV) in accordance with TM GE.002.V1 (SOPam056).
The results from the HPLC analysis of samples drawn from the stored, light exposed solutions, are plotted and presented as FIGS. 6 and 6a (THC before and after charcoal treatment), and FIGS. 7 and 7a (CBD before and after charcoal treatment).

[5] = Effect of light on stability, TLC qualitative analysis; type: physicochemical
Experimental: as §2
The evaluation of the light degraded solutions using thin layer chromatography, used both the existing normal phase system (i.e. Silica stationary phase and hexane/diethyl ether as mobile phase) and two additional systems, capable of resolving more polar or polymeric products formed during the degradation processes.
At the same time, there was an increase in the intensity of Fast Blue B staining material running at, or close to, the origin.

[6] = CNS effect; Carlini et al, 1973; cited from earlier work
[7] = postural hypotension in naïve patients, hypertension reported on prolonged usage; cited from earlier work
[8] = THC alone versus same quantity of THC as Cannabis extract; cited from earlier work
[9] = Relative thermo-oxidative stability; conditions: THC versus CBD
[10] = Reports of subjects taking THCV; conditions: compared with THC

CCCCCc1cc(O)c2c(c1)OC(C)(C)[C@@H]1CCC(CO)=C[C@@H]21 [11-OH THC, 11 hydroxy tetrahydro cannabinol]
reduction in the amount of 11-hydroxy metabolite detected [1]: approximately 25%

C=C(C)[C@@H]1CCC(C)=C[C@H]1c1c(O)cc(CCCCC)cc1O [CBD, cannabidiol]
Cmax [2]: 2 ng/mL | AUC(0-t) [2]: ~8 ng·h/mL | Plasma levels after 6 hours [2]: ~0.5 ng/mL | Plasma levels after 6 hours [3]: Plasma levels after 6 hours were about 1 ng/ml THC and 1 ng/ml CBD | Cmax [3]: 8 ng/mL | AUC(0-t) [3]: ~22 ng·h/mL | residual compound ([4]; after charcoal treatment): approximately 64% | residual compound ([4]; without charcoal clean up): ~38% | relative stability under photochemical stress ([4]; light exposed methanolic CBME solutions): significantly more sensitive to the effects of light than is THC; also recorded: markedly less stable than THC | time to degradation to non-detectable levels ([4]; no charcoal treatment, all light exposures except amber glass, foil and −20° storage, 1 mg/ml CBME in methanol): < 40 days

CCCCCc1cc(O)c2c(c1)OC(C)(C)[C@@H]1CCC(C)=C[C@@H]21 [THC, Δ^9-tetrahydrocannabinol]
Cmax [2]: 6 ng/mL | AUC(0-t) [2]: ~16 ng·h/mL | Plasma levels after 6 hours [2]: ~1 ng/mL | Plasma levels after 6 hours [3]: Plasma levels after 6 hours were about 1 ng/ml THC and 1 ng/ml CBD | Cmax [3]: 6 ng/mL | AUC(0-t) [3]: ~16 ng·h/mL | stability of charcoal treated versus untreated extract ([4]; all solutions except those stored in the dark and at −20° C.): significant improvements to the stability | TLC spot intensity ([5]; day 112, all colour filtered lights, hexane/diethyl ether system): reduction in the intensity | TLC spot intensity ([5]; day 112, foil protected solution): none of these effects | Anticonvulsant [6]: † THC is pro convulsant | effect on blood pressure [7]: § THC has a biphasic effect on blood pressure; in naïve patients it may produce postural hypotension and it has also been reported to produce hypertension on prolonged usage. | degree of pain relief [8]: lower degree of pain relief than the same quantity of THC given as an extract of Cannabis | relative thermo-oxidative stability [9]: less stable

CCCc1cc(O)c2c(c1)OC(C)(C)[C@@H]1CCC(C)=C[C@@H]21 [THCV, Δ^9-tetrahydrocannabinol propyl analogue]
hangover [10]: less severe hangover | mood enhancement as reported by subjects [10]: less disturbing than that produced by THC

From patent US11390437B2, “Pharmaceutical formulation” (priority 2002, dated 2022)
